Data published in paper PMC7766327, “Inhibition of Pneumolysin Cytotoxicity by Hydrolysable Tannins” (Antibiotics, 2020).

Tests used:
[1] = tested on: Ply; parameters: method as in PMID 15928084; conditions: cited from earlier work
[2] = target: T1, pneumolysin (Ply) (Streptococcus pneumoniae serotype 2, UniProt Q04IN8); test: cell-based; format: cell-based
T1 construct: made in house; host or cells: E. coli BL21(DE3)
Protocol: Native human erythrocytes were taken into EDTA tubes. The erythrocytes were washed three times with PBS (0.15 M NaCl, 2.7 mM KCl, 8.1 mM Na2HPO4 and 1.5 mM KH2PO4) by centrifugation at 700× g for 10 min. The purified erythrocytes were stored at +4 °C. Erythrocytes (1% v/v) in PBS were mixed with 1 nM Ply and dilution series of polyphenol inhibitors in 96-well microtiter plates. The reaction was incubated for 30 min at 37 °C. The plates were centrifuged, and the supernatant was pipetted into flat-bottomed microtiter plates to measure the absorbance at 570 nm (VICTOR X4, PerkinElmer, Turku, Finland) of the released hemoglobin from lysed erythrocytes. The absorbances of triplicate measurements are presented as a function of inhibitor concentration. The IC50 values were calculated with Origin data analysis software (2016, OriginLab Corporation, Northampton, MA, USA).

[3] = target: T1, pneumolysin (Ply); test: Pneumolysin oligomerization assay using erythrocytes; format: cell-based
Protocol: For the oligomerization assay, 100 nM Ply (3 µg), 1% (v/v) erythrocytes and 100 µM PGG in PBS were incubated for 2 min at 25 °C and were centrifuged at 16,000× g for 30 min at +7 °C. The pellet containing intact erythrocytes and the membranes from lysed cells were suspended into the water to complete the lysis and recentrifuged at 16,000× g for 30 min. The membranes were suspended into an SDS-PAGE sample buffer (60 mM Tris-HCl, pH 6.8; 2% SDS; 0.001% bromophenol blue; 0.5% β-mercaptoethanol) without incubation at 95 °C and the proteins were separated in 6% SDS-PAGE gel. The gel was stained with Coomassie blue (40% methanol; 10% acetic acid; 0.25% Brilliant blue R-250) and destained in 20% methanol and 5% acetic acid overnight. The proteins were transferred to polyvinyldifluoride (PVDF) membrane for 30 min, 25 V in SDS-PAGE running buffer (25 mM Tris, 190 mM glycine, 0.1% SDS) using the Trans-Blot Turbo Transfer System (Bio-Rad Laboratories Inc., Hercules, CA, USA). The membrane was blocked with 5% (w/v) defatted milk powder in TBS-Tween (10 mM Tris pH 7.5; 150 mM NaCl; 0.05% Tween 20) for 30 min at 25 °C. The His-tagged Ply was detected with anti-His antibody (1:5000 dilution, Sigma-Aldrich, St. Louis, MO, USA) and horseradish […] anti-mouse antibody (1:10,000 dilution, DakoCytomation, Glostrup, Denmark). […]

[4] = target: T1, pneumolysin (Ply); test: Precipitation assay of pneumolysin-tannin interaction; format: binding
Protocol: The precipitation assay with tannins was done as described previously with bovine serum albumin [22]. First, 10 μM of Ply and dilution series of polyphenols (5–1000 µM) were incubated in a Na-acetate buffer (200 mM NaCl and 50 mM CH3COONa; pH 5.0) at 25 °C for 30 min with shaking. The reactions were carried out in Multiskan Ascent plate reader (Labsystems, Vantaa, Finland) and the precipitation was measured at 414 nm. The minimum concentration precipitating Ply was calculated with Origin data analysis software (2016, OriginLab Corporation, Northampton, MA, USA).

[5] = target: T1, pneumolysin (Ply); test: A549 cell cytotoxicity assay (LDH release); format: cell-based; conditions: 2 nM Ply, A549 cells, 2 h
Protocol: For the A549 cell cytotoxicity assay, 5000 cells/well of A549 cells were grown in Dulbecco’s modified Eagle Medium, DMEM (Thermo Fischer Scientific Inc., Waltham, MA, USA), 2 mM glutamine and 10% fetal calf serum (FCS) for 48 h in 96-well microtiter plates. Cells were washed with PBS and dilutions of PGG (0, 125, 250, 500, 1000 and 2000 nM) and 2 nM Ply in PBS were added to the wells and they were incubated for 2 h at 37 °C in 5% CO2 atmosphere. Ply cytotoxicity was determined with the Cytotoxicity Detection Kit^PLUS (Roche Diagnostics GmbH, Mannheim, Germany) according to the manufacturer’s instructions. The released LDH was measured at A490. Complete lysis control was measured in the presence of 0.02% Triton X-100, and for background measurements, cells were incubated without Ply. The values were normalized by calculating using the equation (A490 Ply+inhibitor − A490 Background)/(A490 Triton X-100 − A490 Background)(1)

T1 sequence (Q04IN8 whole entry): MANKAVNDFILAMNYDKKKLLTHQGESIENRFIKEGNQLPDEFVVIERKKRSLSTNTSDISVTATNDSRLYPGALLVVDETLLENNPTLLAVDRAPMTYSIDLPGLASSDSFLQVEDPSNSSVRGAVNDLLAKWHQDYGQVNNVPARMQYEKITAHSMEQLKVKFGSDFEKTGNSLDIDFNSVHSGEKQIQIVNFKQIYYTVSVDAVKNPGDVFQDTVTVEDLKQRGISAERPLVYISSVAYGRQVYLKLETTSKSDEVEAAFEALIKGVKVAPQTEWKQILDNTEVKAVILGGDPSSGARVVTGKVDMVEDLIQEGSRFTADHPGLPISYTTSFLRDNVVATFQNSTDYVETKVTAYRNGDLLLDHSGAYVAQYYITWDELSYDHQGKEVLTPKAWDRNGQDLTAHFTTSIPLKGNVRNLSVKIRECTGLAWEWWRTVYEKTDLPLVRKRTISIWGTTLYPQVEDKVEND

Compound | Concentration required for inhibition of Ply hemolytic activity [1] | Hemolysis Inhibition Inhibitory Power [2] | IC50 ([2]; Hemolysis Inhibition IC50, 1 nM Ply, 1% human erythrocytes, 30 min 37 °C, logistic fit) | IC50 ([2]; IC50 (screening with hemolysis assays), estimated from the inhibition curves, two-fold dilutions of tannins) | Inhibitor class in hemolysis inhibition assay ([2]; classification by IC50 from two-fold dilutions) | Ply oligomer complex on erythrocytes ([3]; 100 µM PGG, 100 nM Ply, Coomassie-stained SDS-PAGE) | Concentration that still inhibited Ply oligomerization ([3]; dilution series of PGG (0–100 µM), Western blotting with anti-His antibody) | Minimum Precipitating Concentration ([4]; 10 μM Ply, Na-acetate buffer pH 5.0, 25 °C, 30 min, absorbance 414 nm) | Precipitation Relative Power ([4]; fold compared to vescalagin (=1)) | Fold higher precipitating concentration compared to hemolysis IC50 ([4]; minimum precipitating concentration vs hemolysis IC50) | inhibition at 0.5 µM ([5]; 500 nM PGG, compared to pneumolysin alone) | inhibition at 1 µM ([5]; 1000 nM PGG, compared to pneumolysin alone) | inhibition at 2 µM ([5]; 2000 nM PGG, compared to pneumolysin alone) | Inhibition of LDH release ([5]; ≤250 nM PGG)
O=C(O[C@@H]1Cc2c(O)cc(O)cc2O[C@@H]1c1cc(O)c(O)c(O)c1)c1cc(O)c(O)c(O)c1 [EGCG, epigallocatechin gallate] | micromolar concentrations were required | – | – | – | – | – | – | – | – | – | – | – | – | –
O=C(OC[C@H]1O[C@@H](OC(=O)c2cc(O)c(O)c(O)c2)[C@H](OC(=O)c2cc(O)c(O)c(O)c2)[C@@H](OC(=O)c2cc(O)c(O)c(O)c2)[C@@H]1OC(=O)c1cc(O)c(O)c(O)c1)c1cc(O)c(O)c(O)c1 [PGG, 1,2,3,4,6-penta-O-galloyl-β-D-glucose] | – | 13 | 18 ± 0.7 nM | 10 nM | potent (potent inhibitors (IC50 10–30 nM)) | abolished | 30 µM | 14 µM | 58 | 770 fold | 60% | 87% | 90% | moderate inhibition
